1 molecule from patent publication US20260226417A1, “METHOD FOR INHIBITING AGING OF STEM CELLS” (ENCELL CO., LTD, priority 2023, published 2026) can be followed below.

The subject of assay [1] is replicative senescence-induced human umbilical cord-derived mesenchymal stem cells (P18). Put plainly: Cell proliferation by CCK-8 assay, 6 days, replicative senescence model (P18). The class given is cell-based. Particulars: 160 μM. The protocol:
Example 4. Validation of gut microbiota-derived metabolite candidate for senescence control Control cells (P5) and replicative senescence-induced human umbilical cord-derived mesenchymal stem cells (P18) were treated with nervonic acid (160 μM) to analyze the effects of the gut microbiota-derived metabolite having the ability to control senescence of stem cells on the proliferation of stem cells and cell size.
Specifically, control cells (p5) and replicative senescence-induced human umbilical cord-derived mesenchymal stem cells (P18) were exposed to nervonic acid (160 μM) in culture medium, followed by culture for 6 days while replacing the medium every 3 days, and cell proliferation was assessed using CCK-8 assay.

Assay [2] relates to human adipose-derived mesenchymal stem cells (AD-MSCs/passage 18). Nature of the assay: β-galactosidase staining, senescent AD-MSCs. The class given is cell-based. Particulars: AD-MSCs passage 18, 3 days. The text has this:
(§1) Human placenta-derived mesenchymal stem cells (pl-mscs) Were Isolated From Placentas Separated according to the previously reported method of Choi et al. (PLOS ONE, (2017) 12 (2): e0172642), umbilical cord blood-derived mesenchymal stem cells (UCB-MSCs) were isolated from the umbilical cord blood separated according to the method of Kim et al. (FEBS Letters, (2010) 584:3601-3608), and adipose tissue-derived mesenchymal stem cells (AD-MSCs) were isolated from adipose tissue separated according to the previously reported method of Palumbo et al. (Int. J. Mol. Sci. (2018) 19:1987).
(§2) Each of the obtained mesenchymal stem cells was subcultured in aMEM (a-modified Minimum Essential Media) containing 10% fetal bovine serum (FBS) and 0.5% gentamicin (10 mg/ml).
(§3) The replicative senescence models of human adipose-derived mesenchymal stem cells (AD-MSCs/passage 18), human bone marrow-derived mesenchymal stem cells (BM-MSCs/passage 15), human umbilical cord blood-derived mesenchymal stem cells (UCB-MSCs/passage 16), and human placenta-derived mesenchymal stem cells (PL-MSCs/passage 18) established as described above were treated with nervonic acid for 3 days, and β-galactosidase staining was performed to observe the extent of senescence.

For assay [3], the system named is replicative senescence model of human umbilical cord-derived mesenchymal stem cells (P18). Put plainly: Cytotoxicity by CCK-8 assay, replicative senescence model (P18). The class given is cell-based. The note with it: 160 μM, P18, CCK-8.
Assay [4] deals with MyHC (myosin heavy chain), a marker of muscle regeneration, in muscle tissue. Put plainly: MyHC Western blotting in muscle tissue of muscle disease mouse model after injection of treated P18 cells. The class given is in vivo. Particulars: P18 cells treated with 160 μM for 72 hours, injected via tail vein, mdx mouse, one week after injection. The protocol: (§4) Specifically, the muscle disease mouse model used was C57BL/10ScSn-Dmdmdx/J (mdx mouse) , and C57BL/10J with the same genetic background was used as a control group. All experiments were conducted using mice aged 4 to 5 months. The cells to be injected were human umbilical cord-derived young mesenchymal stem cells (control group) (P5) and replicative senescence model (P18). More specifically, the replicative senescence model (P18) was treated with 160 μM nervonic acid or an equivalent amount of DMSO for 72 hours during culture at P18 and then dissociated as single cells with 0.25% Trypsin/EDTA (Gibco, MT, USA), and 5×10^4 cells per mouse were injected via the tail vein. One week after injection, both tibial muscles of the mouse model were harvested and fixed in 4% paraformaldehyde or frozen.
Example 10. Comparative analysis of muscle regeneration promotion efficacy after injection of various human tissue-derived mesenchymal stem cells treated with nervonic acid into muscle disease mouse model A replicative senescence model (P18) was treated with nervonic acid (160 μM) and then injected into a muscle disease mouse model to assess the effect of nervonic acid treatment on the therapeutic efficacy of the replicative senescence model (P18) in terms of muscle regeneration in muscle tissue.
In addition, the expression of MyHC was assessed at the protein level. […]

Assay [5] concerns human bone marrow-derived mesenchymal stem cells (BM-MSCs/passage 15). Put plainly: β-galactosidase staining, senescent BM-MSCs. The class given is cell-based. The note with it: BM-MSCs passage 15, 3 days. The protocol: Human bone marrow-derived mesenchymal stem cells (BM-MSCs) were purchased from Cambrex (Lonza, #PT-2501).
as §2, §3

Assay [6] concerns replicative senescence model of human umbilical cord-derived mesenchymal stem cells (P18). Put plainly: Screening of gut microbiota-derived metabolite library for senescence control (primary HTS and secondary cell viability screening). The class given is cell-based. The text has this:
Example 2. Screening of gut microbiota-derived metabolites for senescence control of human umbilical cord-derived mesenchymal stem cells In order to determine differences in metabolite reactivity depending on the senescence status of human umbilical cord-derived mesenchymal stem cells, a library of 485 gut microbiota-derived metabolites was used to select candidates that inhibit the proliferation or cause death of replicative senescent stem cells.
Thereby, 13 candidates showing low viability only in the replicative senescence model (P18) without affecting the viability of the control cells (P5) were selected by primary screening, and the experimental group was treated with the metabolite at 25 μM, 50 μM, 100 μM, 200 μM, 300 μM, 400 μM, and 500 μM to determine the optimal concentration of the metabolite by secondary screening, analyzing the senescence control effect at a total of 7 metabolite concentrations.

The subject of assay [7] is Annexin V, an apoptosis marker, in muscle tissue. Nature of the assay: Annexin V Western blotting in muscle tissue of muscle disease mouse model after injection of treated P18 cells. The note with it: P18 cells treated with 160 μM for 72 hours, 5×10^4 cells per mouse via tail vein, one week after injection. The class given is in vivo. The procedure: A replicative senescence model (P18) was treated with nervonic acid (160 μM) and then injected into a muscle disease mouse model to assess the effect of nervonic acid treatment on the therapeutic efficacy of the replicative senescence model (P18) in terms of reducing apoptosis in muscle tissue.
as §4
In addition, the expression of Annexin V was assessed at the protein level. Specifically, the protein to be used in the experiment was extracted from muscle tissue. […]

Assay [8] deals with human umbilical cord blood-derived mesenchymal stem cells (UCB-MSCs/passage 16). Nature of the assay: β-galactosidase staining, senescent UCB-MSCs. The class given is cell-based. The note with it: UCB-MSCs passage 16, 3 days.
Text: as §1, §2, §3

Consider `CCCCCCCC/C=C\CCCCCCCCCCCCCC(=O)O` [nervonic acid], for which the cell proliferation entry in assay [1] is “proliferation was significantly reduced”. Further, the “progression of senescence (β-galactosidase staining) compared to control group (DMSO)” value in assay [2], in assay [5] and in assay [8] was “progression of senescence was significantly inhibited” each time. The “cell viability, fold decrease compared to before treatment” value in assay [3] is listed as 0.68±0.03 fold. In addition, the “MyHC protein expression level (Western blotting) compared to DMSO treatment group” value in assay [4] is on record as “significantly increased”. Besides, the “senescence control effect in secondary screening” value in assay [6] (13 candidates tested at 25-500 μM (7 concentrations), P18 vs P5) is recorded as “greatest effect on controlling senescence”. Besides, the “concentration exhibiting senescence control efficacy in secondary screening” value in assay [6] (secondary screening) is “about 200 μM”. Also, in assay [7], the “Annexin V protein expression (Western blotting), fold decrease compared to mdx control group” value came out at 0.30±0.02 fold.
